IC50 data for one compound are collected here from PMC3926237, “Identification of Levothyroxine Antichagasic Activity through Computer-Aided Drug Repurposing” (The Scientific World Journal, 2014).

This assay has as its target cruzipain (Cz) (Trypanosoma cruzi, UniProt P25779). In words: chromogenic Bz-Pro-Phe-Arg-pNA protease assay on partially purified native cruzipain, […] nm. It counts as biochemical.

Sequence of cruzipain (Cz) (P25779 123-467): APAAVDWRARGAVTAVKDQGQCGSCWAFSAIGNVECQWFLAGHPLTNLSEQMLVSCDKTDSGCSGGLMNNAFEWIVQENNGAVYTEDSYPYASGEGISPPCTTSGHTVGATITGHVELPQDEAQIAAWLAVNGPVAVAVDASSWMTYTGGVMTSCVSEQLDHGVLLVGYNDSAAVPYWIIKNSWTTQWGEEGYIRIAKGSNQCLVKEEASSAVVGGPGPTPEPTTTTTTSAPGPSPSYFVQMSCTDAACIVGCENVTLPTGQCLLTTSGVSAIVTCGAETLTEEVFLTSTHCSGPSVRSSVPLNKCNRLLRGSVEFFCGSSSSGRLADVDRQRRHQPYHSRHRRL

Usually IC50 stands for the point on the concentration scale where inhibition reaches its midpoint. Higher therefore signals lower potency. For the compound `N[C@@H](Cc1cc(I)c(Oc2cc(I)c(O)c(I)c2)c(I)c1)C(=O)O` [levothyroxine], 38.4 ± 6.82 µM corresponded to half-maximal inhibition (IC50).
